Earlier results on 3 compounds are cited in patent US8097423B2, “MN/CA IX and breast cancer therapy” (Institute of Virology, priority 2008, dated 2012).

The conditions of data set [1]: weak basic drug.
In the next data set the test system is T2-4 N0-1 breast cancer. The following applies: breast cancer patients, primary systemic treatment, four cycles before surgery; no significant difference between arms.
For data set [2] the following is noted: Phase I and II clinical trials.

As to `CC/C(=C(\c1ccccc1)c1ccc(OCCN(C)C)cc1)c1ccccc1` [Tamoxifen, tamoxifen], in data set [1], the pKa is given as 8.8.

For the compound `COc1cccc2c1C(=O)c1c(O)c3c(c(O)c1C2=O)C[C@@](O)(C(=O)CO)C[C@@H]3O[C@H]1C[C@H](N)[C@@H](O)[C@H](C)O1` [epirubicin], the treatment responses in the data set on T2-4 N0-1 breast cancer is 76%.

Turning to Rencarex®: an MN-specific drug, in data set [2], the “tolerability / drug-related side effects” value is given as “well-tolerated, with no serious drug-related side effects”.
